In patent publication EP0308279A1, “Water-soluble polysaccharides, process for obtaining them, their use as medicaments and a preparation containing them” (LIPHA, LYONNAISE INDUSTRIELLE PHARMACEUTIQUE, priority 1987, dated 1989):

Test system: macrophages alvéolaires de rats Kyoto
Assay: Activation of alveolar macrophages (cytostatic/cytotoxic activity towards tumour target cells, tritiated thymidine incorporation)
Type: cell-based, rat
Conditions: mean of 3 measurements
Method: Ce test met en évidence le phénomène d'activation des macrophages par une mesure de leur activité cytostatique ou cytotoxique envers des cellules de lignée tumorale.
Le test de mesure de l'activation des macrophages consiste à traiter une culture de macrophages alvéolaires ou péritonéaux de rat ou de souris ou de monocytes humaines par des doses des polysaccharides de l'invention variant entre 0,001 et 50 µg/ml. Il est réalisé de la manière suivante :
10⁵ macrophages de souris de souche Balb c, Swiss, C57/B16 ou DBA/2 ou de rat de souche Kyoto ou Wistar sont placés dans une plaque de microtitration dans du milieu de culture complété ou non par du sérum artificiel et de 1 à 10 µg/ml de polymyxine.
On ajoute les polysaccharides de l'invention ou le tampon correspondant sans polysaccharides comme contrôle négatif. Les cellules sont incubées 24 heures à 37°C. On élimine ensuite le surnageant et lave les cellules avec du milieu de culture.
On ajoute alors les cellules cibles tumorales L1210 ou P815 dans du milieu complet. Le rapport macrophages/cellules cibles est de 10. On incube alors la culture durant 24 heures à 37°C. Puis on ajoute 1 - 2 x 10⁴Bq de thymidine tritiée par puits. Les cellules sont récupérées après 4 heures d'incubation à 37°C sur un filtre en fibre de verre. Après séchage des filtres, la radioactivité est mesurée en présence d'un mélange scintillant.
Les résultats correspondent à une moyenne de 3 mesures. Le pourcentage d'activation est exprimé : [formula] R : radioactivité incorporée par les cellules tumorales cultivées en présence de macrophages de référence. S : radioactivité incorporée par les cellules tumorales cultivées en présence de macrophages stimulés.

CC(=O)N[C@H]1C(O)O[C@H](CO)[C@@H](O)[C@@H]1O[C@H](C)C(=O)N[C@@H](C)C(=O)N[C@H](CCC(=O)O)C(N)=O (mixture of isomers) [Muramyl dipeptide (MDP), Muramyl dipeptide]
% d'activation des macrophages alvéolaires de rats Kyoto. (dose 0,01 µg/ml): 28%
% d'activation des macrophages alvéolaires de rats Kyoto. (dose 1 µg/ml): 90%
% d'activation des macrophages alvéolaires de rats Kyoto. (dose 10 µg/ml): 92%
